target: PIK3CD (Human) (UniProt O00329); experiment: Cell-Free Assay
Sequence (O00329 whole entry, looked up): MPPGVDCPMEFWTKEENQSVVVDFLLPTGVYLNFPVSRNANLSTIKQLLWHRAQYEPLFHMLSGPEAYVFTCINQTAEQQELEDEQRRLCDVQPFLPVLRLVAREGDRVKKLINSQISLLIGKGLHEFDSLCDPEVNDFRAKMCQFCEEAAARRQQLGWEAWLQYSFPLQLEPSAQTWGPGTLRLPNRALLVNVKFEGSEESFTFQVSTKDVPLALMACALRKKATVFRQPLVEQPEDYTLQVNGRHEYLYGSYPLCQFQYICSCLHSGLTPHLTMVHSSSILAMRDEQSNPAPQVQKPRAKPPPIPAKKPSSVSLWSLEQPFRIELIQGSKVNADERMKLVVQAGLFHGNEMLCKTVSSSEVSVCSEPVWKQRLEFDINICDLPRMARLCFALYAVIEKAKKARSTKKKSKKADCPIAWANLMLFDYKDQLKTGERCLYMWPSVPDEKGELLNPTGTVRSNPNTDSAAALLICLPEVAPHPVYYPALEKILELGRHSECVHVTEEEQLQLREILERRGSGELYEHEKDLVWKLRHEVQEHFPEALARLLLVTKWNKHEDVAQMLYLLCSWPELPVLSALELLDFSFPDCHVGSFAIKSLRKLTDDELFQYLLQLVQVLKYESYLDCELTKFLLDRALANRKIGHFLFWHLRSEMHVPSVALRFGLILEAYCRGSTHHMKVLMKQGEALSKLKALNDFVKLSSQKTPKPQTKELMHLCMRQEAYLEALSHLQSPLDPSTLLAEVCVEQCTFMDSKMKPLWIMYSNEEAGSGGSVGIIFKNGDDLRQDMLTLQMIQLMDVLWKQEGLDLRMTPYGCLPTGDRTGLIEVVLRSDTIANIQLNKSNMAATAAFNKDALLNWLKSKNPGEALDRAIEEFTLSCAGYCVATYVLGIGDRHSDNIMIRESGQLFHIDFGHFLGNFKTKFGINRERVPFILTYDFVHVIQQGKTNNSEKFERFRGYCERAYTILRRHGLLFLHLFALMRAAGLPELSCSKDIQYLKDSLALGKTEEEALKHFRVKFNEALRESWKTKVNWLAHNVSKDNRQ

IC50 [nM]	SMILES
5.9	Cc1ccn2nc([C@H](C)Nc3ncnc(N)c3C#N)nc(-c3ccnc(N4CCC(N(C)C)CC4)c3)c12
10	Cc1ccn2nc([C@H](C)Nc3ncnc(N)c3C#N)nc(Oc3cccc(NCCN(C)C)c3)c12
6.2	Cc1ccn2nc([C@H](C)Nc3ncnc(N)c3C#N)nc(N3CCC(CN4CCCC4)CC3)c12
9.9	Cc1cc(-c2nc([C@H](C)Nc3ncnc(N)c3C#N)nn3ccc(C)c23)n(C)n1
2.8	Cc1ccn2nc(Cn3nc(-c4cc(O)cc(F)c4)c4c(N)ncnc43)nc(N3CCC(C(N)=O)CC3)c12
3.6	Cc1ccn2nc([C@H](C)Nc3ncnc(N)c3C#N)nc(-c3cc(O)cc(C(=O)NCCN(C)C)c3)c12
1.9	Cc1ccn2nc([C@H](C)Nc3ncnc(N)c3C#N)nc(CCN3CCOCC3)c12
76.7	Cc1cc(C(=O)NCc2ccc(S(N)(=O)=O)cc2)cc(-c2nc([C@H](C)Nc3ncnc(N)c3C#N)nn3cccc23)c1
0.9	Cc1ccn2nc(Cn3nc(-c4cncc(O)c4)c4c(N)ncnc43)nc(N3C[C@@H](C)N[C@@H](C)C3)c12
5.9	Cc1ccn2nc(Cn3nc(-c4cc(O)cc(F)c4)c4c(N)ncnc43)nc(N3C[C@@H]4CC[C@H]3CN4S(C)(=O)=O)c12
2.9	Cc1ccn2nc([C@H](C)Nc3ncnc(N)c3C#N)nc(N(CCN(C)C)Cc3ccc(N4CCN(C)CC4)cc3)c12
11.4	Cc1cc(-c2nc([C@H](C)Nc3ncnc(N)c3C#N)nn3cccc23)cc(C)c1C(=O)NCCO
0.8	Cc1ccn2nc(Cn3nc(-c4cc(O)cc(F)c4)c4c(N)ncnc43)nc(OCCN3CCOCC3)c12
8	Cc1ccn2nc([C@H](C)Nc3ncnc(N)c3C#N)nc(-c3ccc(O)c(C(C)(C)O)c3)c12
2.7	Cc1ccn2nc(Cn3nc(-c4cc(O)cc(F)c4)c4c(N)ncnc43)nc(N3CCSCC3)c12
62	CC(C)Oc1nc([C@H](C)Nc2ncnc(N)c2C#N)nn2cccc12
45.4	CC(=O)N1[C@H](C)CN(c2nc([C@H](C)Nc3ncnc(N)c3C#N)nn3ccc(C)c23)C[C@@H]1C
1.3	Cc1ccn2nc([C@H](C)Nc3ncnc(N)c3C#N)nc(-c3cc(O)cc(C#N)c3)c12
0.6	Cc1ccn2nc(Cn3nc(-c4cc(O)cc(F)c4)c4c(N)ncnc43)nc(OCCN3CCC(C(=O)O)CC3)c12
19	COc1cccc(N(C)c2nc([C@H](C)Nc3ncnc(N)c3C#N)nn3ccc(C)c23)c1

IC50 [nM]	SMILES
14.6	Cc1ccn2nc([C@H](C)Nc3ncnc(N)c3C#N)nc(N[C@@H](Cc3ccc(O)cc3)C(N)=O)c12
6.1	CNCCNc1nc([C@H](C)Nc2ncnc(N)c2C#N)nn2ccc(C)c12
3.1	Cc1cc(C(=O)NCCCCCN(C)CCO)cc(-c2nc([C@H](C)Nc3ncnc(N)c3C#N)nn3ccc(C)c23)c1
6.4	Cc1ccn2nc([C@H](C)Nc3ncnc(N)c3C#N)nc(N(CCN(C)C)Cc3ccc(N4CCC(N(C)C)CC4)cc3)c12
0.3	Cc1cc(-c2nc([C@H](C)Nc3ncnc(N)c3C#N)nn3ccc(C)c23)cc(C)c1O
1.1	Cc1ccn2nc(Cn3nc(-c4cc(O)cc(F)c4)c4c(N)ncnc43)nc(NCCN3CCCC3)c12
6	Cc1ccn2nc([C@H](C)Nc3ncnc(N)c3C#N)nc(OC3CCN(C(C)C)CC3)c12
0.1	Cc1ccn2nc(Cn3nc(-c4cc(O)cc(F)c4)c4c(N)ncnc43)nc(N(CCN(C)C)c3cccc(O)c3)c12
2.5	Cc1ccn2nc(Cn3nc(-c4cc(O)cc(F)c4)c4c(N)ncnc43)nc(N3CCS(=O)(=O)CC3)c12
2	Cc1ccn2nc([C@H](C)Nc3ncnc(N)c3C#N)nc(-c3cc(O)cc(C(=O)NC4CC4)c3)c12
0.4	Cc1cc(C(=O)O)cc(-c2nc([C@H](C)Nc3ncnc(N)c3C#N)nn3ccc(C)c23)c1
13	Cc1ccn2nc([C@H](C)Nc3ncnc(N)c3C#N)nc(N(CCN3CCOCC3)c3cccc(O)c3)c12
0.5	Cc1ccn2nc([C@H](C)Nc3ncnc(N)c3C#N)nc(N3C[C@@H](C)N[C@@H](C)C3)c12
1	Cc1ccn2nc(Cn3nc(-c4cc(O)cc(F)c4)c4c(N)ncnc43)nc(N3C[C@@H]4C[C@H]3CN4)c12
2	Cc1ccn2nc([C@H](C)Nc3ncnc4[nH]cc(-c5cnn(C)c5)c34)nc(N3C[C@@H](C)N[C@@H](C)C3)c12
10.6	CN[C@H]1CCCC[C@@H]1N(C)c1nc([C@H](C)Nc2ncnc(N)c2C#N)nn2ccc(C)c12
0.5	Cc1ccn2nc(Cn3nc(-c4cc(O)cc(NS(C)(=O)=O)c4)c4c(N)ncnc43)nc(N3C[C@@H](C)N[C@@H](C)C3)c12
1	Cc1ccn2nc(Cn3nc(-c4cc(O)cc(F)c4)c4c(N)ncnc43)nc(OC3CCN(C(C)C)CC3)c12
2.5	Cc1ccn2nc(Cn3nc(-c4cc(O)cc(F)c4)c4c(N)ncnc43)nc(OCCN3CCCC3=O)c12
1.2	CCOC(=O)C1CCN(CCOc2nc(Cn3nc(-c4cc(O)cc(F)c4)c4c(N)ncnc43)nn3ccc(C)c23)CC1

IC50 [nM]	SMILES
7	Cc1ccn2nc([C@H](C)Nc3ncnc(N)c3C#N)nc(Oc3cccc(CO)c3)c12
2.8	Cc1cc(N(C)C)cc(C2CCN(c3cc(-c4nc([C@H](C)Nc5ncnc(N)c5C#N)nn5ccc(C)c45)ccn3)CC2)n1
1	Cc1ccn2nc(Cn3nc(-c4cc(O)cc(F)c4)c4c(N)ncnc43)nc(N3C[C@@H](C)O[C@@H](C)C3)c12
7	COc1ncc(-c2nc([C@H](C)Nc3ncnc(N)c3C#N)nn3ccc(C)c23)cc1NS(C)(=O)=O
0.5	COc1ncc(-c2c[nH]c3ncnc(N[C@@H](C)c4nc(N5C[C@@H](C)O[C@@H](C)C5)c5c(C)ccn5n4)c23)cc1NS(C)(=O)=O
2.6	Cc1cc(C(=O)NCc2ccc(C(=O)NCCO)cc2)cc(-c2nc([C@H](C)Nc3ncnc(N)c3C#N)nn3ccc(C)c23)c1
1	Cc1ccn2nc([C@H](C)Nc3ncnc(N)c3C#N)nc(-c3cc(O)cc(C(F)(F)F)c3)c12
6.1	Cc1ccn2nc(Cn3nc(-c4cc(O)cc(F)c4)c4c(N)ncnc43)nc(N3CCCNCC3)c12
10	COc1ccc(S(=O)(=O)Nc2cc(-c3nc([C@H](C)Nc4ncnc(N)c4C#N)nn4ccc(C)c34)cnc2O)cc1
6	C[C@H](Nc1ncnc(N)c1C#N)c1nc(OCC2CCOCC2)c2c(Br)ccn2n1
8.8	Cc1ccn2nc([C@H](Cc3cccc(O)c3)Nc3ncnc(N)c3C#N)nc(N3C[C@@H](C)N[C@@H](C)C3)c12
1	Cc1ccn2nc([C@H](C)Nc3ncnc4[nH]cc(C#N)c34)nc(N(CCN(C)C)c3cccc(O)c3)c12
62	Cc1ccn2nc([C@H](C)Nc3ncnc(N)c3-c3cc(O)cc(F)c3)nc(OCC3CCOCC3)c12
27	C[C@H](Nc1ncnc(N)c1C#N)c1nc(OCC2CCNCC2)c2cccn2n1
1.7	Cc1cc(C(=O)N(C)Cc2cccc(O)c2)cc(-c2nc([C@H](C)Nc3ncnc(N)c3C#N)nn3ccc(C)c23)c1
6.2	Cc1ccn2nc([C@H](C)Nc3ncnc4[nH]cc(-c5cc(O)cc(NS(=O)(=O)CCN(C)C)c5)c34)nc(N3C[C@@H](C)N[C@@H](C)C3)c12
2	Cc1ccn2nc(Cn3nc(-c4cc(O)cc(F)c4)c4c(N)ncnc43)nc(OCC3CCOCC3)c12
31	C[C@H](Nc1ncnc(N)c1C#N)c1nc(OCC2CCOCC2)c2c(C#N)ccn2n1
